# Measurements published in patent US5994334A, “Androgen synthesis inhibitors” (priority 1997, dated 1999).
# Where two headings read alike, the source gives them in different places.
# Experiments:
# [1] = target: 17α-hydroxylase/C17,20-lyase; settings: read-out: Ki (literature); cited from earlier work
# [2] = system: LNCaP human prostatic cancer cell line; assay: Androgen-dependent growth of LNCaP cells; settings: for reversal of testosterone-stimulated LNCaP growth (in words): inhibitor 0.3-5 μM, 9 days; for stimulation of LNCaP cell proliferation (in words): hydroxyflutamide 0.3-1 μM
# Procedure: The ability of various inhibitors to reverse the stimulatory effect of testosterone on the growth of the LNCaP human prostatic cancer cell line was tested by comparing cell number in wells treated for 9 days with either drug vehicle only (control), 0.1 nM testosterone only, or 0.1 nM testosterone with inhibitor at 0.3, 1, 2.5, or 5 μM.
# [3] = system: human prostatic tissue (BPH or prostate cancer); assay: Prostate tissue in histoculture, DNA synthesis ([3H]-thymidine uptake); settings: for inhibition of testosterone-stimulated DNA synthesis (in words), 0.3 μM: inhibitor 0.3 μM; for reversal of testosterone-stimulated DNA synthesis (in words), 1 μM: inhibitor 1 μM, testosterone 1 μM, FIG. 1
# Procedure: We recently developed a histoculture method to evaluate the growth inhibiting properties of the compounds on human prostatic tissue. […] The tissue samples were then incubated for 3 days in fresh medium/treatment containing 2 μCi/ml [^3 H]-thymidine. Tissue was then digested and DNA extracted. For each sample, [^3 H]-thymidine uptake was normalized to DNA content. […] This finding is consistent with the compound acting as an antiandrogen. None of the compounds produced an independent effect on DNA synthesis in the absence of added androgens.
# [4] = target: T1, Human Prostatic 5α-Reductase (Homo sapiens, UniProt P31213); assay: Inhibition of human prostatic 5α-reductase (prostatic microsomes, [3H]testosterone); settings: for inhibition at 0.01 µM: read-out: % Inhibition of 5α-reductase, [I] 10 nM; for inhibition at 0.1 µM: read-out: % Inhibition of 5α-reductase, [I] 100 nM
# T1 sequence (P31213 1-254): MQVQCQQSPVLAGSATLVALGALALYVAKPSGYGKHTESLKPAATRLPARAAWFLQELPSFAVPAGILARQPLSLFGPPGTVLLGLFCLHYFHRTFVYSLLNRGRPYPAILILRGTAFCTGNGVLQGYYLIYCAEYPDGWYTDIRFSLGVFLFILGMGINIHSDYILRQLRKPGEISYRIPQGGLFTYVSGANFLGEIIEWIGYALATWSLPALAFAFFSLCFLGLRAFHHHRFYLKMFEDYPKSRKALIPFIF
# Procedure: The 5α-reductase assay is performed by incubating human prostatic microsomes (approx. 0.6 mg protein in 0.5 ml phosphate buffer) with [7-^3 H]testosterone (10 mM. 6×10^5 dpm) with a NADPH generating system (NADP 0.65 mM; glucose-6-phosphate 7.1 mM; glucose-6-phosphate dehydrogenase 2.5 IU in 100 μl phosphate buffer) and candidate inhibitors at concentrations of 10 nM and 100 nM under oxygen for 30 min at 37° C. […] The steroids are extracted with ether and separated by chromatography on TLC (chloroform:ether 80:20). […] The steroids are scraped from the plate and radioactivity measured.
# [5] = target: T2, Human Testicular 17α-Hydroxylase (Homo sapiens, UniProt P05093); assay: Inhibition of human testicular 17α-hydroxylase (pregnenolone substrate, testicular microsomes); type: biochemical
# T2 construct: incubating human testicular microsomes; from tissue; host or cells: human testis, microsomes
# T2 sequence (P05093 1-508): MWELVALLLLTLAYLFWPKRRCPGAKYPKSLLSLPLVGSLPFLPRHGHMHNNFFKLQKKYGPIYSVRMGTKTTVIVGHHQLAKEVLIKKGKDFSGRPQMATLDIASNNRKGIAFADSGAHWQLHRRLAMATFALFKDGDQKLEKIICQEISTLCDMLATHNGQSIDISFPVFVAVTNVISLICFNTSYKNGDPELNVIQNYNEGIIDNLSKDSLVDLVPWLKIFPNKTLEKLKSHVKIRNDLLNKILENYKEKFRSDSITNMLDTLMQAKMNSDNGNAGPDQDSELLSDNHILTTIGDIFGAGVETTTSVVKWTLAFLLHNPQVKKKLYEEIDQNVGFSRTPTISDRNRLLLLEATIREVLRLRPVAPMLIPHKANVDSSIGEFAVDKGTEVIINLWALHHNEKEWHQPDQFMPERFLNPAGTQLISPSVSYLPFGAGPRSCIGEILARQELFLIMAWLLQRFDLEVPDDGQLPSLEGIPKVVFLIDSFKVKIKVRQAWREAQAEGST
# Procedure: (§1) The conversion of radiolabeled pregnenolone to 17α-hydroxypregnenolone and DHEA by 17α-hydroxylase/C17,20 -lyase was measured by incubating human testicular microsomes with different concentration of test compounds. Reverse phase HPLC was used to separate and accurately quantify the amount of substrate and metabolites. The 17α-hydroxylase and C17,20 -lyase activities were calculated separately. The activity of 17α-hydroxylase was calculated from the conversion of pregnenolone to 17α-hydroxypregnenolone and DHEA and the activity of C17,20 -lyase was based on the conversion of pregnenolone to DHEA. Although 17α-hydroxypregnenolone is the substrate converted to DHEA by C17,20 -lyase, it has been reported that this 17α-hydroxy intermediate is not released from the enzyme binding site during conversion (Nakajin et al., 1981a,b). Also, there are species differences in substrate requirements. Pregnenolone is the natural substrate rather than progesterone for human testicular 17α-hydroxylase and C17,20 -lyase. Therefore, pregnenolone was used as substrate for measuring the activity of this enzyme complex.
# [6] = target: T3, Human Testicular C17,20-lyase (Homo sapiens, UniProt P05093); assay: Inhibition of human testicular C17,20-lyase (pregnenolone substrate, testicular microsomes); type: biochemical
# T3 construct: incubating human testicular microsomes; from tissue; host or cells: human testis, microsomes
# T3 sequence (P05093 1-508): T2 sequence (P05093 1-508)
# Procedure: as §1
# [7] = target: T4, human 17α-hydroxylase/C17,20-lyase (Homo sapiens, UniProt P05093); assay: Inhibition of human testicular 17α-hydroxylase/C17,20-lyase (enzyme complex as a whole); type: biochemical; settings: for inhibition of 17α-hydroxylase/C17,20-lyase (in words): NI = no inhibition
# T4 construct: incubating human testicular microsomes; from tissue; host or cells: human testis, microsomes
# T4 sequence (P05093 1-508): T2 sequence (P05093 1-508)
# Procedure: as §1
# [8] = system: adrenal 17α-hydroxylase/C17,20-lyase; assay: Inhibition of adrenal 17α-hydroxylase/C17,20-lyase; type: biochemical; settings: guinea pig adrenal
# [9] = system: LNCaP human prostatic tumors; assay: Human prostatic cancer (LNCaP) xenograft in male nude mice; type: in vivo, human (LNCaP) tumors in BALB/c male athymic mice; settings: five weeks
# Procedure: We have reported that inoculation of MCF-7 breast cancer cells in Matrigel increases mammary tumor formation in nude mice (Yue et al., 1994). The same procedure was therefore utilized to develop tumors from human prostatic cancer cells (LNCAP) in male nude mice. BALB/c male athymic mice, 4-6 weeks old, were inoculated sc with LNCaP cells suspended in Matrigel (10 mg/ml). Four sites per mouse were injected with 1.8×10^6 cells in 0.1 ml Matrigel. Treatment began when the tumor reached about 100 mm^3 in volume. Tumors were measured before the treatment began and once a week during treatment. Tumor volume was calculated by the formula 4/3πr1^2 r2 (r1 <r2).At the end of treatment, the mice were sacrificed and individual tumors were weighed. The latency of tumor development was 30-40 days and overall tumorigenicity was 82%.
# In a further experiment, two mice were treated with I-16 (1 mg/mouse/day, s.c.) beginning 45 days after cell inoculation. Two mice received vehicle as controls. […] The mean tumor weight was 198.78±72 mg in I-16 treated mice compared to 386.3±147.2 mg in the control group. In other experiments, I-47 and I-49 were effective in controlling tumor growth. The total tumor volume of the control mice increased to 884.0% of the initial volume.
# [10] = Table 1, NI = no inhibition, read-out: IC50 17α-OHase
# [11] = Table 3, first figure of 17α-hydroxylase/lyase pair, read-out: IC50 17α-hydroxylase
# [12] = first figure of pair, read-out: IC50 17α-hydroxylase
# [13] = Table 1, NI = no inhibition, CI = complete inhibition, read-out: IC50 C17,20 lyase
# [14] = second figure of pair, read-out: IC50 C17,20-lyase
smiles,measurement,setting,value
C[C@]12CC[C@H]3[C@@H](CC=C4C[C@@H](O)CC[C@@]43C)[C@@H]1CC[C@@H]2NC1CC1 [17β-(cyclopropylamino)androst-5ene-3-ol],Ki,[1],90 nM
"CCN(CC)C(=O)[C@H]1CC[C@H]2[C@@H]3CC[C@H]4N(C)C(=O)CC[C@]4(C)[C@H]3CC[C@]12C [Compound 4MA, reference compound]",reversal of DHT-stimulated LNCaP growth (in words),[2]; 0.03 nM DHT,dose-dependent reversal
same,reversal of testosterone-stimulated LNCaP growth at 5 μM (in words),"[2]; 0.1 nM testosterone, inhibitor 5 μM",almost completely reversed
same,reversal of testosterone-stimulated LNCaP growth (in words),[2]; 0.1 nM testosterone,dose-dependent reversal
same,IC50,"[2]; Homo sapiens, LNCaP, 216 h, read-out: concentration reducing the stimulatory effect of testosterone by 50%",≤ 1000 nM
same,"inhibition of testosterone-stimulated DNA synthesis (in words), 0.3 μM",[3],highly effective
same,"reversal of testosterone-stimulated DNA synthesis (in words), 1 μM",[3],almost complete reversal
same,IC50,"[4]; IC50 5α-reductase, Table 2",10 nM
same,inhibition at 0.01 µM,[4],71.9%
same,inhibition at 0.1 µM,[4],92%
C[C@H](O)[C@H]1CC[C@H]2[C@@H]3CCC4=CC(=O)CC[C@]4(C)[C@H]3CC[C@]12C [Compound I-33],IC50,[5]; IC50 17α-OHase,2840 nM
same,IC50,"[6]; IC50 C17,20 lyase",1430 nM
same,stimulation of LNCaP cell proliferation (in words),[2]; 0.1 nM testosterone,stimulated cell proliferation
same,"inhibition of testosterone-stimulated DNA synthesis (in words), 0.3 μM",[3],highly effective
same,"reversal of testosterone-stimulated DNA synthesis (in words), 1 μM",[3],almost complete reversal
same,IC50,[4]; IC50 5α-reductase,13 nM
same,IC50,"[4]; IC50 5α-reductase, Table 2",13 nM
same,inhibition at 0.01 µM,[4],28.5%
same,inhibition at 0.1 µM,[4],87.6%
C[C@@H](O)[C@H]1CC[C@H]2[C@@H]3CCC4=CC(=O)CC[C@]4(C)[C@H]3CC[C@]12C [Compound I-34],"inhibition of 17α-hydroxylase/C17,20-lyase (in words)",[7],potent inhibition
same,reversal of DHT-stimulated LNCaP growth (in words),[2]; 0.03 nM DHT,stimulation of growth above the level produced by DHT
same,stimulation of LNCaP cell proliferation (in words),[2]; 0.1 nM testosterone,stimulated cell proliferation
same,"inhibition of testosterone-stimulated DNA synthesis (in words), 0.3 μM",[3],partially effective
same,"reversal of testosterone-stimulated DNA synthesis (in words), 1 μM",[3],almost complete reversal
same,IC50,[4]; IC50 5α-reductase,90 nM
same,IC50,"[4]; IC50 5α-reductase, Table 2",90 nM
same,inhibition at 0.01 µM,[4],16.1%
same,inhibition at 0.1 µM,[4],64.5%
"C[C@]12CC[C@H]3[C@@H](CCC4=CC(=O)CC[C@@]43C)[C@@H]1CC[C@@H]2c1c[nH]cn1 [Compound I-41, 17β-(4'-imidazolyl)-androst-4-en-3-one]",IC50,[5]; [10],59 nM
same,IC50,[5]; [11],59.4 nM
same,IC50,[5]; [12],59 nM
same,IC50,[6]; [13],5 nM
same,IC50,"[6]; Table 3, second figure of pair, CI = complete inhibition, read-out: IC50 lyase",5.61 nM
same,IC50,[6]; [14],5 nM
same,"reversal of testosterone-stimulated DNA synthesis (in words), 1 μM",[3],without effect
same,IC50,[4]; IC50 5α-reductase,122 nM
same,IC50,"[4]; IC50 5α-reductase, Table 3, NI = no inhibition",122 nM
CC(=NO)[C@H]1CC[C@H]2[C@@H]3CCC4=CC(=NO)CC[C@]4(C)[C@H]3CC[C@]12C [Compound I-43],IC50,[5]; [10],90 nM
same,IC50,[6]; [13],70 nM
same,"inhibition of 17α-hydroxylase/C17,20-lyase (in words)",[7],decreased activity
same,"reversal of testosterone-stimulated DNA synthesis (in words), 1 μM",[3],without effect
same,inhibition of 5α-reductase (in words),[4]; NI = no inhibition,decreased activity
same,IC50,"[4]; read-out: IC50 5α-reductase, Table 2",1270 nM
"C[C@]12CC[C@H](O)CC1=CC[C@@H]1[C@@H]2CC[C@]2(C)C(c3c[nH]cn3)=CC[C@@H]12 [Compound I-49, 17β-(4'-imidazolyl)-androsta-5,16-dien-3β-ol]",IC50,[5]; [10],8 nM
same,IC50,[5]; [11],8.82 nM
same,IC50,[5]; [12],4 nM
same,IC50,[6]; [13],9 nM
same,IC50,[6]; [14],4 nM
same,"inhibition of 17α-hydroxylase/C17,20-lyase (in words)",[7],potent inhibitors
same,"fold increase of inhibition by 16,17 double bond",[7]; vs I-47,2 fold
same,times more potent than ketoconazole,[7]; vs ketoconazole,10-50 times
same,effect on adrenal enzyme (in words),[8],very little effect
same,reversal of DHT-stimulated LNCaP growth (in words),[2]; 0.03 nM DHT,dose-dependent reversal
same,reversal of DHT-stimulated LNCaP growth at 5 μM (in words),"[2]; 0.03 nM DHT, inhibitor 5 μM",nearly complete reversal
same,reversal of testosterone-stimulated LNCaP growth (in words),[2]; 0.1 nM testosterone,dose-dependent reversal
same,"reversal of testosterone-stimulated DNA synthesis (in words), 1 μM",[3],partially effective
same,"total tumor volume (% of initial volume), 5 weeks","[9]; 4 mice per group, control 884.0%, FIG. 2",315.3%
same,"mean tumor weight, 5-week experiment","[9]; control 1310.5±1125.9 mg, I-49 p<0.05 vs control",255.9 ± 176.9 mg
same,inhibition at 0.1 µM,[4],26.3%
"C[C@]12CC[C@H]3[C@@H](CCC4=CC(=O)CC[C@@]43C)[C@@H]1CC[C@@H]2O [Testosterone, reference compound]",fold induction at 0.0001 µM,"[2]; Homo sapiens, LNCaP, 216 h, read-out: stimulation of LNCaP growth by testosterone",2
same,fold induction at 1 µM,"[3]; Homo sapiens, read-out: stimulation of DNA synthesis by testosterone",~2
